# Species: Rattus norvegicus
# Assay: Anti-ulcer activity in stress-induced Sprague-Dawley rat […] model assessed as reduction in ulcer fomation
# Type: functional
# Set-up: Activity: concentration or dose not given beside the values
# Details: not given
row,SMILES,Activity [%]
1,CC(C)Cc1ccc(C(C)C(=O)NS(=O)(=O)c2ccc(N)cc2)cc1 (stereo unspecified),8
2,CC(C)Cc1ccc(C(C)C(=O)O)cc1 (stereo unspecified) [IBUPROFEN],35
3,COC1Oc2ccccc2-c2sc(C=O)cc21 (stereo unspecified),7.3
4,CCCc1cc([S+]([O-])c2nc3cc(C)ccc3[nH]2)nc(C)n1 (stereo unspecified),72.87
5,CCCc1cc([S+]([O-])c2nc3ccccc3[nH]2)nc(C)n1 (stereo unspecified),74.03
6,CCCc1cc([S+]([O-])c2nc3cc([N+](=O)[O-])ccc3[nH]2)nc(C)n1 (stereo unspecified),75.15

# Same assay, conditions: Rattus norvegicus, Sprague-Dawley
row,SMILES,ED50 [mg/kg]
1,Cc1c(OCC(F)(F)C(F)F)ccnc1C[S+]([O-])c1nc2ccccc2[nH]1 (stereo unspecified),1.2
2,[O-][S+](Cc1cc(OCC(F)(F)F)ccn1)c1nc2ccccc2[nH]1 (stereo unspecified),2
3,Cc1c(OCC(F)(F)F)ccnc1C[S+]([O-])c1nc2ccccc2[nH]1 (stereo unspecified) [LANSOPRAZOLE],2.4
4,Cc1c(OCC(F)(F)C(F)(F)F)ccnc1C[S+]([O-])c1nc2ccccc2[nH]1 (stereo unspecified),5.1

# Tested on: Helicobacter pylori
# Assay: Antibacterial activity against Helicobacter pylori ATCC 43504 assessed as minimum bactericidal concentration incubated for 24 hrs by broth micro-dilution method
# Type: functional
# Details: not given
row,SMILES,MBC [µg/mL]
1,Cc1c(CSc2nc3ccccc3[nH]2)cccc1SCCN1CCOCC1,1
2,COCCOCCOCCOCCOCCSc1cccc(CSc2nc3ccccc3[nH]2)c1C,0.5
3,Cc1c(CSc2nc3ccccc3[nH]2)cccc1SCCn1c([N+](=O)[O-])cnc1C,2
4,COCCOCCOCCSc1cccc(CSc2nc3ccccc3[nH]2)c1C,0.5
5,Cc1c(CSc2nc3ccccc3[nH]2)cccc1SCCn1cncn1,4

# Tested on: Helicobacter pylori
# Assay: Antibacterial activity against Helicobacter pylori assessed as inhibition of bacterial growth by broth micro-dilution assay
# Type: functional
# Details: not given
row,SMILES,MIC90 [µg/mL]
1,Cc1c(CSc2nc3ccccc3[nH]2)cccc1SCCOC(=O)Nc1ccccc1,> 64

# Tested on: not listed separately
# Assay: Cmax in C57BL/6 mouse administered via oral gavage by LC-MS/MS analysis
# Type: ADME
# Details: in vivo
row,SMILES,Cmax [ng/mL]
1,Cc1c(CSc2nc3ccccc3[nH]2)cccc1SCCOC(=O)Nc1ccccc1,900

# Biological target: not listed separately
# Assay: Inhibition of Hydrogen potassium ATPase (unknown origin)
# Set-up: species or system Homo sapiens
# Details: not given
row,SMILES,IC50 [µg/mL]
1,COc1ccc2[nH]c([S+]([O-])Cc3ncc(C)c(OC)c3C)nc2c1 (stereo unspecified) [OMEPRAZOLE],37.91
2,Cc1ccc(-c2csc(NC(=O)/C=C/c3ccc(O)c(O)c3)n2)cc1,35.35

# Same assay, conditions: read-out: IC50
row,SMILES,IC50 [µM]
1,Brc1ccc(C2CC(c3ccco3)=Nc3ccccc3S2)cc1 (stereo unspecified),2.1
2,CCc1ccc(-c2nc3c(C(=O)NCc4cccc(CN)c4)cccn3c2NCc2ccccc2)cc1,6
3,Cc1ccccc1-c1nc2c(C(=O)NCc3cccc(CN)c3)cccn2c1NCc1ccccc1,6.2
4,COc1ccc(C2CC(c3ccco3)=Nc3ccccc3S2)cc1 (stereo unspecified),2

# Biological target: Urease subunit alpha/Urease subunit beta (Helicobacter pylori (strain ATCC 700392 / 26695) (Campylobacterpylori), UniProt P69996)
# Assay: Inhibition of Helicobacter pylori urease
# Type: protein-complex assay
# Details: not given
# Sequence of Urease subunit alpha/Urease subunit beta (P69996 whole entry): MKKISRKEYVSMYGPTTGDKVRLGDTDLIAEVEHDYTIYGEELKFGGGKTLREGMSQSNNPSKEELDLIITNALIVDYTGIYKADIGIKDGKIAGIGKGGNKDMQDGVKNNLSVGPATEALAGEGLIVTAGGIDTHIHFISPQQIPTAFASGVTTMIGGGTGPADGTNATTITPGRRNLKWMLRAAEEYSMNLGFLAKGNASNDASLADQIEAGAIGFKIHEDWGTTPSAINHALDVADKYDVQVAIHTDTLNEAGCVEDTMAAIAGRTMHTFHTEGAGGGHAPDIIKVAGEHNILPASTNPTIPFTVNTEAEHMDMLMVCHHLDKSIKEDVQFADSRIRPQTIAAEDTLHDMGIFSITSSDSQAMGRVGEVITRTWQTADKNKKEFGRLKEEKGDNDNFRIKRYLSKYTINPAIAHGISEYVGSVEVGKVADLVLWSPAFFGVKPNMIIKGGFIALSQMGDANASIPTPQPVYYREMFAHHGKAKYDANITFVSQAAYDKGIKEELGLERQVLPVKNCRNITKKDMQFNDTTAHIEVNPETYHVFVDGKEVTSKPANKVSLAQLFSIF
# Sequence of Urease subunit alpha/Urease subunit beta (P14916 whole entry, further chain): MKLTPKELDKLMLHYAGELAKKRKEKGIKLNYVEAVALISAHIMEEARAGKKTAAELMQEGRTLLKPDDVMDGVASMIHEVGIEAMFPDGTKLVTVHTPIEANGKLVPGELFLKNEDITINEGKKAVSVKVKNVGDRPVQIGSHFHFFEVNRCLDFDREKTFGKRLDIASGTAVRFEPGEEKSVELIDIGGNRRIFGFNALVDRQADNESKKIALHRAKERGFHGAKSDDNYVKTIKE
row,SMILES,IC50 [µM]
1,O=C(Cc1c[nH]c2ccccc12)N/N=C/c1ccc(O)cc1O,1.2
2,O=C(Cc1c[nH]c2ccccc12)N/N=C/c1cccc(O)c1O,0.9
3,O=C(Cc1c[nH]c2ccccc12)N/N=C/c1ccc(O)c(O)c1,0.6

# Tested on: not listed separately
# Assay: Inhibition of urease (unknown origin)
# Set-up: species or system Homo sapiens
# Details: not given
row,SMILES,IC50 [µM]
1,COC(=O)c1ccc(/C=N/NC(=O)Cc2c[nH]c3ccccc23)cc1,3.9
2,COc1ccc(C(=O)N/N=C/c2cc(O)cc(O)c2)cc1OC,8.4
3,COc1ccc(C(=O)N/N=C/c2ccc(O)c(O)c2)cc1OC,18.2
4,CC(C)=CCOc1c2ccoc2cc2oc(=O)ccc12 [ISOIMPERATORIN],36.4
5,COc1ccc(C(=O)N/N=C/c2cc(O)ccc2O)cc1OC,19.2
6,COc1ccc(C(=O)N/N=C/c2cc(O)c(O)c(O)c2)cc1OC,12.6

# Tested on: Rattus norvegicus
# Assay: Protection against aspirin-induced Sprague-Dawley rat model assessed as reduction in gastric glandular lesion at 20 mg/kg, po administered for 30 mins once a day relative to control
# Type: functional
# Set-up: scale not given: the % may be the effect or the level left
# Details: 0.5 h
row,SMILES,Activity [%]
1,CN/C(=N\CCSCc1nc[nH]c1C)NC#N [CIMETIDINE],51.6
2,CC(CC1OCCc2ccccc21)NCC(C)c1ccccc1 (stereo unspecified),71.3
3,CC(CC1CCCc2ccccc21)NCC(C)c1ccccc1 (stereo unspecified),71.3
4,CC(C)NC(C)CC1OCCc2ccccc21 (stereo unspecified),61
5,CC(CC1OCCc2ccccc21)NCCc1ccccc1 (stereo unspecified),71.3

# Tested on: Rattus norvegicus
# Assay: Gastric ulcerogenic activity in Albino wistar rat assessed as reduction in pyloric lesion at 250 mg/kg, po relative to control
# Type: functional
# Set-up: scale not given: the % may be the effect or the level left
# Details: not given
row,SMILES,Activity [%]
1,N#CC1=C(N)Nc2nc(-c3cc4ccccc4oc3=O)sc2C1c1ccccc1 (stereo unspecified),82
2,CCOC(=O)/C(C(=O)Nc1sc2sc(-c3cc4ccccc4oc3=O)nc2c1C#N)=C(/C)c1ccccc1,48
3,N#C/C(C(=O)Nc1sc2sc(-c3cc4ccccc4oc3=O)nc2c1C#N)=C(\C=N\Nc1ccccc1)c1ccccc1,66
4,N#Cc1c(O)nc2sc3sc(-c4cc5ccccc5oc4=O)nc3c2c1O,70
5,N#Cc1c(N)sc2sc(-c3cc4ccccc4oc3=O)nc12,64
6,COc1ccc(-n2ncc(-c3ccccc3)c(C(=O)Nc3sc4sc(-c5cc6ccccc6oc5=O)nc4c3C#N)c2=N)cc1,93
7,O=c1oc2ccccc2cc1-c1nc2c(s1)sc1nc(=S)n(-c3ccccc3)c(O)c12,78
8,N#Cc1c(NC(=O)c2c(-c3ccccc3)cnn(-c3ccc(Cl)cc3)c2=N)sc2sc(-c3cc4ccccc4oc3=O)nc12,94

# Tested on: Mus musculus
# Assay: Anti-inflammatory activity against carrageenan-induced hind paw edema Swiss albino mouse model assessed as reduction in paw thickness at 10 mg/kg, po relative to control
# Type: functional
# Set-up: scale not given: the % may be the effect or the level left
# Details: not given
row,SMILES,Activity [%]
1,CCOC(=O)/C(=N/Nc1ccccc1)Sc1nnc(-c2c([C@H]3CC[C@H]4[C@@H]5CC=C6C[C@H](O)CC[C@]6(C)[C@H]5CC[C@]34C)csc2N)n1-c1ccccc1,0.96
2,CCOC1=C(Sc2nnc(-c3c([C@H]4CC[C@H]5[C@@H]6CC=C7C[C@H](O)CC[C@]7(C)[C@H]6CC[C@]45C)csc3N)n2-c2ccccc2)C(c2ccccc2)C(C#N)=C(N)N1 (stereo partly specified),0.18
3,CC(=O)/C(=N/Nc1ccccc1)Sc1nnc(-c2c([C@H]3CC[C@H]4[C@@H]5CC=C6C[C@H](O)CC[C@]6(C)[C@H]5CC[C@]34C)csc2N)n1-c1ccccc1,1.77

# Tested on: Mus musculus
# Assay: Gastric ulcerogenic activity in Swiss albino mouse model assessed as inhibition of gastric inflammation at 250 mg/kg, po relative to control
# Type: functional
# Set-up: scale not given: the % may be the effect or the level left
# Details: not given
row,SMILES,Activity [%]
1,CCOC(=O)/C(=N/Nc1ccccc1)Sc1nnc(-c2c([C@H]3CC[C@H]4[C@@H]5CC=C6C[C@H](O)CC[C@]6(C)[C@H]5CC[C@]34C)csc2N)n1-c1ccccc1,6.7
2,CCOC1=C(Sc2nnc(-c3c([C@H]4CC[C@H]5[C@@H]6CC=C7C[C@H](O)CC[C@]7(C)[C@H]6CC[C@]45C)csc3N)n2-c2ccccc2)C(c2ccccc2)C(C#N)=C(N)N1 (stereo partly specified),5.9
3,CC(=O)/C(=N/Nc1ccccc1)Sc1nnc(-c2c([C@H]3CC[C@H]4[C@@H]5CC=C6C[C@H](O)CC[C@]6(C)[C@H]5CC[C@]34C)csc2N)n1-c1ccccc1,6.2

# Tested on: Mus musculus
# Assay: Anti-ulcerogenic activity in ethanol-induced gastric ulcer mouse model assessed as reduction in ulcer formation at 250 mg/kg
# Type: functional
# Details: not given
row,SMILES,Activity_index
1,CCOC(=O)CN1CCN(S(=O)(=O)c2cc(C)c3cc(C(C)C)ccc(C)c2-3)CC1,1.875
2,COc1ccc(C2C(C#N)=C(O)OC(Nc3nc4c(s3)C[C@H]3[C@@H]5CCC6=CC(=O)CC[C@]6(C)[C@H]5CC[C@]43C)=C2C#N)cc1 (stereo partly specified),2.48
3,Cc1cc(S(=O)(=O)N2CCN(S(C)(=O)=O)CC2)c2c(C)ccc(C(C)C)cc1-2,1.714
4,Cc1cc(S(=O)(=O)N2CCN(S(=O)(=O)c3ccccc3)CC2)c2c(C)ccc(C(C)C)cc1-2,1.12
5,C[C@]12CCC(=O)C=C1CC[C@@H]1[C@@H]2CC[C@]2(C)c3nc(NC4=C(C#N)C(c5ccc(Cl)cc5)C(C#N)=C(N)O4)sc3C[C@@H]12 (stereo partly specified),2.48

# Tested on: Rattus norvegicus
# Assay: Gastric ulcerogenic activity in Wistar rat assessed as reduction in gastric inflammation at 0.02 mg/kg, po relative to control
# Type: functional
# Set-up: scale not given: the % may be the effect or the level left
# Details: not given
row,SMILES,Activity [%]
1,COc1ccc(/C=C/C(=C2C(=O)NC(=O)NC2=O)c2nc3ccccc3[nH]2)cc1,67.17
2,O=C1NC(=O)C(=C(/C=C/c2ccc(Cl)cc2)c2nc3ccccc3[nH]2)C(=O)N1,69.56
3,COc1ccc2[nH]c([S+]([O-])Cc3nc(Cl)c4c(-c5ccc(Cl)cc5)csc4n3)nc2c1 (stereo unspecified),72.6
4,COc1nc(C[S+]([O-])c2nc3ccccc3[nH]2)nc2scc(-c3ccccc3)c12 (stereo unspecified),64.6
5,O=C1NC(=O)C(=C(/C=C/c2ccccc2)c2nc3ccccc3[nH]2)C(=O)N1,63.04
6,CN(C)c1ccc(/C=C/C(=C2C(=O)NC(=O)NC2=O)c2nc3ccccc3[nH]2)cc1,69.56
7,COc1ccc2[nH]c([S+]([O-])Cc3nc(Cl)c4c(-c5ccccc5)csc4n3)nc2c1 (stereo unspecified),70.2

# Biological target: T1, Gastrin/cholecystokinin type B receptor (Homo sapiens, UniProt P32239)
# T1 sequence (P32239 whole entry): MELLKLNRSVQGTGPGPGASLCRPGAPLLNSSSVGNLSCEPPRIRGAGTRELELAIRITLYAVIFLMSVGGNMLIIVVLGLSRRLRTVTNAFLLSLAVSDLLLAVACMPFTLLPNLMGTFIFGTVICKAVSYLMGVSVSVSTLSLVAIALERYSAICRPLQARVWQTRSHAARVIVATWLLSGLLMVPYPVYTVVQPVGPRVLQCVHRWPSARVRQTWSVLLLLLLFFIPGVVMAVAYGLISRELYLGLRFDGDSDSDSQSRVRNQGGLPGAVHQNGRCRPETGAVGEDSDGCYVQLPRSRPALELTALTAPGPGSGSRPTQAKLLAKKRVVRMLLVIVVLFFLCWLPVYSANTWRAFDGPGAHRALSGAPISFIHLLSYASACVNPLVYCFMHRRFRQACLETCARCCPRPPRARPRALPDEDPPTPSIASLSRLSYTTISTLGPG
# Assay: Antagonist activity at human CCKBR
# Type: functional
# Details: not given
row,SMILES,IC50 [µM]
1,CCCc1ccc([C@@H]2N[C@H](C(=O)OC)CC3c4ccccc4NC32)cc1 (stereo partly specified),140
2,COC(=O)[C@H]1Cc2c([nH]c3ccccc23)[C@H](c2ccc(C)cc2)N1,64.6

# Tested on: Helicobacter pylori
# Assay: Antibacterial activity against Helicobacter pylori ATCC 43504 assessed as reduction in bacterial growth incubated for 24 hrs by broth micro-dilution method
# Type: functional
# Details: not given
row,SMILES,MIC [µg/mL]
1,C=CCSCC=C [DIALLYL SULFIDE],100

# Tested on: Helicobacter pylori
# Assay: Antibacterial activity against Helicobacter pylori assessed as reduction in bacterial growth incubated for 24 hrs by broth micro-dilution method
# Type: functional
# Details: not given
row,SMILES,MIC [µg/mL]
1,COc1ccc2c(c1OC)C(=O)O[C@@H]2[C@H]1c2cc3c(cc2CCN1C)OCO3 [HYDRASTINE],25
2,COc1cc2ccc(=O)oc2cc1O [SCOPOLETIN],50
3,COc1ccc2cc3[n+](cc2c1OC)CCc1cc2c(cc1-3)OCO2 [BERBERINE],0.78
4,C=CCSSSSCC=C [DIALLYL TETRASULFIDE],3
5,COc1cc2ccc(=O)oc2cc1O[C@@H]1O[C@H](CO)[C@@H](O)[C@H](O)[C@H]1O [SCOPOLIN],50

# — ChEMBL document CHEMBL5550142, “From lab to nature: Recent advancements in the journey of gastroprotective agents from medicinal chemistry to phytotherapy” (Eur J Med Chem, 2024)
